Laboratory results reported in US20240382508A1, “REGENERATIVE AGENT FOR BONE TISSUE AND LUNG TISSUE, AND PHARMACEUTICAL COMPOSITION FOR REGENERATING BONE TISSUE AND LUNG TISSUE” (NIIGATA UNIVERSITY, priority 2021, published 2024).
Entries after “also recorded” stand apart in the source; their conditions may differ.

Assays:
[1] = test system: experimental periodontitis model mice; assay: bone regeneration in experimental periodontitis model mice (teeth ligated with silk threads); type: in vivo, mouse; settings: 22-month-old aging mice; 20 mg/kg intraperitoneally once; 5 days regeneration period
Source text: Experimental periodontitis model mice in which teeth are ligated with silk threads are useful models for inflammatory bone destruction research because inflammations and bone resorption occur in about 10 days after the ligation. The above-described experimental periodontitis models were produced by using 6-week-old wild-type mice (N=8, male C57BL/6N mice, manufactured by CLEA Japan, Inc.), 22-month-old aging mice (N=4, male C57BL/6N mice, manufactured by CLEA Japan, Inc.), and 6-week-old DEL-1-deficient mice (N=8, male C57BL/6N mice (manufactured by CLEA Japan, Inc.), a method for producing the deficient mice was as described in Non Patent Document 1), the silk threads were removed 10 days after the ligation, a remission phase of inflammation of 5 days passed, and in the wild-type mice, new bone formation was recognized at the site of resorbed bone defect while no repair mechanism of the periodontal tissue by DEL-1 was recognized.
The experimental periodontitis models described in Example 1 were produced by using 6-week-old wild-type mice (N=8, male C57BL/6N mice, manufactured by CLEA Japan, Inc.), 22-month-old aging mice (N=4, male C57BL/6N mice, manufactured by CLEA Japan, Inc.), and 6-week-old DEL-1-deficient mice (N=8, male C57BL/6N mice (manufactured by CLEA Japan, Inc.), a method for producing the deficient mice was as described in Non Patent Document 1), the silk threads were removed 10 days after the ligation to experimentally induce periodontitis, subsequently a bone regeneration period of 5 days was provided, and then the amount of regeneration of resorbed bone was measured using a stereomicroscope and image measurement software (manufactured by Nikon Corporation). Erythromycin (10 mg/kg) and ethanol (final concentration 0.1% by mass) were intraperitoneally administered once after the removal of the silk threads. In addition, DEL-1 (1 μg) and Fc control (0.84 μg) were directly inoculated into the gingiva after the removal of the silk threads. The results are shown in FIG. 3 (left: wild-type mice, right: DEL-1-deficient mice) and FIG. 4 (aging mice).
Next, the experimental periodontitis model described in Example 1 was produced by using 22-month-old aging mice (N=4, male C57BL/6N mouse, manufactured by CLEA Japan, Inc.), the silk threads were removed 10 days after the ligation to experimentally induce periodontitis, subsequently a bone regeneration period of 5 days was provided, and the amount of regeneration of resorbed bone was measured using a stereomicroscope and image measurement software (manufactured by Nikon Corporation). Erythromycin (ERM) (20 mg/kg), azithromycin (AZM) (20 mg/kg), clarithromycin (CLM) (20 mg/kg), and ethanol (final concentration 0.1% by mass) as a control were intraperitoneally administered once after the removal of the silk threads. […] In addition, there was no difference in the amount of bone regeneration between the macrolide antimicrobial agent-administered groups.

osteoblasts = assay: bone nodule measurement in osteoblasts (Alizarin red S); type: cell-based, mouse; settings: osteoblasts derived from wild-type mice; 10 μg/mL each; 15 days
Experimental: Next, from the cranial bones of 3-day-old wild-type mice (N=6, male C57BL/6N mice, manufactured by CLEA Japan, Inc.) and 3-day-old DEL-1-deficient mice (N=6, male C57BL/6N mice (manufactured by CLEA Japan, Inc.), a method for producing the deficient mice was as described in Non Patent Document 1), osteoblasts were isolated by allowing 0.1% by mass of type 1 collagenase and 0.2% by mass of dispase to act at 37° C. for 20 minutes, and the cells were cultured in α-MEM and a bone differentiation medium (containing 50 μg/ml ascorbic acid and 10 mM β-glycerol 2-phosphate). Ethanol (final concentration 0.1% by mass) and erythromycin (10 μg/mL) were added into the medium in which the osteoblasts (1×10^4 cells/mL) derived from the wild-type mice or the DEL-1-deficient mice were cultured. The medium was exchanged every 3 days, and after 15 days, the cells were stained with Alizarin red S, followed by performing of bone nodule measurement.
Next, the proportion (%) of bone nodules with respect to the observation region in the above-described osteoblasts was calculated from microscopic images by using image processing software (NIH Image). In addition, RNA was extracted from each of the osteoblasts by using an RNeasy Kit (manufactured by QIAGEN NV), subsequently cDNA was synthesized by using a cDNA synthesis kit (manufactured by Thermo Fisher Scientific, Inc.), and the relative expression levels of RUNX2 mRNA, Sp7 mRNA, and Bglap mRNA, which are important for bone regeneration, were checked by an RT-PCR method (Quantstudio3, Thermo Fisher Scientific, Inc.). Regarding primers, designed primers manufactured by Thermo Fisher Scientific, Inc. were used. The Assay IDs of the primers used are shown below.
(Bone regeneration-inducing effect 2 by various macrolide antimicrobial agents) From the cranial bones of 3-day-old wild-type mice (N=6, male C57BL/6N mice, manufactured by CLEA Japan, Inc.), osteoblasts were isolated by allowing 0.1% by mass of type 1 collagenase and 0.2% by mass of dispase to act at 37° C. for 20 minutes, and the cells were cultured in α-MEM and a bone differentiation medium (containing 50 μg/ml ascorbic acid and 10 mM β-glycerol 2-phosphate). Ethanol (final concentration 0.1% by mass), or erythromycin, clarithromycin, or azithromycin (10 μg/mL each) was added into the medium in which the osteoblasts (1×10^4 cells/mL) derived from the wild-type mice were cultured. The medium was exchanged every 3 days, and after 15 days, the cells were stained with Alizarin red S, followed by performing of bone nodule measurement. The results are shown in FIG. 11 In FIG. 11, the symbol * indicates p<0.05, and the symbol ** indicates p<0.01. In addition, the control is an ethanol (final concentration 0.1% by mass)-added group.

[2] = test system: bone defects in the jawbones; assay: jawbone defect regeneration in cynomolgus monkeys (microCT); type: in vivo; settings: 200 μg at bone defect site, one month
Experimental: Bone defects with a diameter of 2 cm and a depth of 2 cm were artificially produced in the jawbones of young (2 years old) and aged (10 years old) cynomolgus monkeys by using a round steel bar. Next, 200 μg of each of erythromycin, clarithromycin, and azithromycin were added to the bone defect sites. As controls, a non-administered group and a group administered with 200 μg of REGROTH (registered trademark), which has been approved as a bone regenerative agent, were also prepared. The amount of bone regeneration after one month from the administration of each drug was checked by using microCT. In FIG. 10, the symbol * indicates p<0.01.

[3] = test system: iCell mesenchymal stem cells; assay: bone nodule measurement in mesenchymal stem cells induced from human iPS cells; type: cell-based; settings: 10 μg/mL for each; 15 days; bone differentiation medium
Experimental: iCell (registered trademark) mesenchymal stem cells (iCell (registered trademark) MSCs) (#01279, manufactured by Fujifilm Corporation) (1×10^4 cells/mL) obtained by inducing human mesenchymal stem cells from iPS cells, were cultured in α-MEM and a bone differentiation medium (containing 50 μg/mL ascorbic acid and 10 mM β-glycerol 2-phosphate). Ethanol (final concentration 0.1% by mass), or erythromycin, clarithromycin, or azithromycin (10 μg/mL for each) was added to the medium. The medium was exchanged every 3 days, and after 15 days, the cells were stained with Alizarin red S, followed by performing of bone nodule measurement. The results are shown in FIG. 18 (stained images) and FIG. 19 (graph showing the proportion of bone nodules). In FIG. 18 and FIG. 19, the ethanol (final concentration 0.1% by mass)-added group is a control. In FIG. 19, the symbol * indicates p≤0.05, the symbol ** indicates p≤0.01, the symbol *** indicates p≤0.001, and the symbol **** indicates p≤0.0001.

[4] = aged (10 years old) cynomolgus monkeys
[5] = young (2 years old) cynomolgus monkeys

CC[C@H]1OC(=O)[C@H](C)[C@@H](O[C@H]2C[C@@](C)(OC)[C@@H](O)[C@H](C)O2)[C@H](C)[C@@H](O[C@@H]2O[C@H](C)C[C@H](N(C)C)[C@H]2O)[C@](C)(O)C[C@@H](C)CN(C)[C@H](C)[C@@H](O)[C@]1(C)O [azithromycin]
bone regeneration (FIG. 9) [1]: bone regeneration was recognized
formation of bone nodules (FIG. 11) (osteoblasts): the formation of bone nodules was recognized; also recorded: particularly favorable
bone regeneration effect (FIG. 10) [2, 4]: a bone regeneration effect was recognized
bone regeneration effect (FIG. 10) [2, 5]: a bone regeneration effect was recognized
formation of bone nodules (FIG. 18, FIG. 19) [3]: the formation of bone nodules was recognized

CC[C@H]1OC(=O)[C@H](C)[C@@H](O[C@H]2C[C@@](C)(OC)[C@@H](O)[C@H](C)O2)[C@H](C)[C@@H](O[C@@H]2O[C@H](C)C[C@H](N(C)C)[C@H]2O)[C@](C)(OC)C[C@@H](C)C(=O)[C@H](C)[C@@H](O)[C@]1(C)O [clarithromycin]
bone regeneration (FIG. 9) [1]: bone regeneration was recognized
formation of bone nodules (FIG. 11) (osteoblasts): the formation of bone nodules was recognized
bone regeneration effect (FIG. 10) [2, 4]: a bone regeneration effect was recognized
bone regeneration effect (FIG. 10) [2, 5]: a bone regeneration effect was recognized
formation of bone nodules (FIG. 18, FIG. 19) [3]: the formation of bone nodules was recognized
